These results are taken from patent US10112941B2, “Tricyclic compounds as anticancer agents” (BRISTOL-MYERS SQUIBB COMPANY, priority 2013, dated 2018).

The term IC50 denotes the concentration that inhibits the measured activity by half.

The structures appear in SMILES notation.

The target of the test is BRD4 (Homo sapiens, UniProt O60885). Description: Time Resolved Fluorescence Resonance Energy Transfer (TR-FRET) binding assay, BRD4. The conditions noted are these: one of the FRET assays described; read-out: FRET BRD4 IC50. On the technique in general: TR-FRET usually uses a lanthanide donor and a delayed reading to cut background.
As to `[2H]C([2H])([2H])c1onc(C)c1-c1cnc2c3c(OC)ccc(S(=O)(=O)C([2H])([2H])[2H])c3n([C@H](c3ccccc3)C3CCOCC3)c2c1` [Example 193, 4-[6-(^2H3)Methanesulfonyl-9-methoxy-5-[(S)-oxan-4-yl(phenyl)methyl]-5H-pyrido[3,2-b]indol-3-yl]-5-(^2H3)methyl-3-methyl-1,2-oxazole], the IC50 is < 5 nM.
Take `Cc1nnn(C)c1-c1cnc2c3c(F)cc(S(C)(=O)=O)cc3n([C@H](c3ccccc3)C3CCOCC3)c2c1` [Example 194, 5-{9-Fluoro-7-methanesulfonyl-5-[(S)-oxan-4-yl(phenyl)methyl]-5H-pyrido[3,2-b]indol-3-yl}-1,4-dimethyl-1H-1,2,3-triazole]: the half-inhibitory concentration (IC50) is < 5 nM.
Next, `[2H]C([2H])([2H])c1nnn(C)c1-c1cnc2c3c(F)cc(S(C)(=O)=O)cc3n([C@H](c3ccccc3)C3CCOCC3)c2c1` [Example 195, 5-{9-Fluoro-7-methanesulfonyl-5-[(S)-oxan-4-yl(phenyl)methyl]-5H-pyrido[3,2-b]indol-3-yl}-4-(^2H3)methyl-1-methyl-1H-1,2,3-triazole]: < 5 nM; `[2H]C([2H])([2H])c1nnn(C)c1-c1cnc2c3c(F)cc(S(C)(=O)=O)cc3n([C@H](c3ccccc3F)C3CCOCC3)c2c1` [Example 196, 5-{9-Fluoro-5-[(S)-(2-fluorophenyl)(oxan-4-yl)methyl]-7-methanesulfonyl-5H-pyrido[3,2-b]indol-3-yl}-4-(^2H3)methyl-1-methyl-1H-1,2,3-triazole]: < 25 nM.
Regarding `[2H]C([2H])([2H])c1nnn(C)c1-c1cnc2c3c(OC)cc(S(C)(=O)=O)cc3n([C@H](c3ccccc3)C3CCOCC3)c2c1` [Example 197, 5-{7-Methanesulfonyl-9-methoxy-5-[(S)-oxan-4-yl(phenyl)methyl]-5H-pyrido[3,2-b]indol-3-yl}-4-(^2H3)methyl-1-methyl-1H-1,2,3-triazole], the IC50 is < 5 nM.
To `[2H]C([2H])([2H])c1nnn(C)c1-c1cnc2c3c(OC)cc(S(C)(=O)=O)cc3n([C@H](c3ccccc3F)C3CCOCC3)c2c1` [Example 198, 5-{5-[(S)-(2-Fluorophenyl)(oxan-4-yl)methyl]-7-methanesulfonyl-9-methoxy-5H-pyrido[3,2-b]indol-3-yl}-4-(^2H3)methyl-1-methyl-1H-1,2,3-triazole] belongs < 5 nM; to `[2H]C([2H])([2H])c1nnn(C)c1-c1cnc2c3c(F)cc(S(C)(=O)=O)cc3n([C@H](c3ccc(F)cc3)C3CCOCC3)c2c1` [Example 201, 5-{9-Fluoro-5-[(S)-(4-fluorophenyl)(oxan-4-yl)methyl]-7-methanesulfonyl-5H-pyrido[3,2-b]indol-3-yl}-4-(^2H3)methyl-1-methyl-1H-1,2,3-triazole], < 5 nM.
In the case of `[2H]C([2H])([2H])c1nnn(C)c1-c1cnc2c3c(OC)cc(S(C)(=O)=O)cc3n([C@H](c3ccc(F)cc3)C3CCOCC3)c2c1` [Example 202, 5-{5-[(S)-(4-Fluorophenyl)(oxan-4-yl)methyl]-7-methanesulfonyl-9-methoxy-5H-pyrido[3,2-b]indol-3-yl}-4-(^2H3)methyl-1-methyl-1H-1,2,3-triazole], the IC50 is < 5 nM.
Next, `[2H]C([2H])([2H])c1nnn(C)c1-c1cnc2c3ccc(C(C)(C)O)cc3n(C(c3ccccc3)C3CCC(F)(F)CC3)c2c1` (stereo not shown) [Example 204, 2-{5-[(4,4-Difluorocyclohexyl)(phenyl)methyl]-3-[4-(^2H3)methyl-1-methyl-1H-1,2,3-triazol-5-yl]-5H-pyrido[3,2-b]indol-7-yl}propan-2-ol]: < 5 nM; `[2H]C([2H])([2H])c1nnn(C)c1-c1cnc2c3c(OC)cc(S(C)(=O)=O)cc3n(C(c3ncccc3F)C3CCOCC3)c2c1` (stereo not shown) [Example 207, 3-Fluoro-2-[{7-methanesulfonyl-9-methoxy-3-[4-(^2H3)methyl-1-methyl-1H-1,2,3-triazol-5-yl]-5H-pyrido[3,2-b]indol-5-yl}(oxan-4-yl)methyl]pyridine]: < 5 nM.
`[2H]C([2H])([2H])c1nnn(C)c1-c1cnc2c3c(OC)cc(S(C)(=O)=O)cc3n(C(c3ncccc3F)C3CCOCC3)c2c1` (stereo not shown) [Example 208, 3-Fluoro-2-[{7-methanesulfonyl-9-methoxy-3-[4-(^2H3)methyl-1-methyl-1H-1,2,3-triazol-5-yl]-5H-pyrido[3,2-b]indol-5-yl}(oxan-4-yl)methyl]pyridine]: the IC50 was < 5 nM.
To `[2H]C([2H])([2H])c1nnn(C)c1-c1cnc2c3c(OCC)cc(S(C)(=O)=O)cc3n(C(c3ccccc3)C3CCC(F)(F)CC3)c2c1` [Example 209, 5-{5-[(S)-(4,4-Difluorocyclohexyl)(phenyl)methyl]-9-ethoxy-7-methanesulfonyl-5H-pyrido[3,2-b]indol-3-yl}-4-(^2H3)methyl-1-methyl-1H-1,2,3-triazole] belongs < 5 nM; to `[2H]C([2H])([2H])c1nnn(C)c1-c1cnc2c3c(OCC)cc(S(C)(=O)=O)cc3n(C(c3ccccc3)C3CCC(F)(F)CC3)c2c1` [Example 210, 5-{5-[(S)-(4,4-Difluorocyclohexyl)(phenyl)methyl]-9-ethoxy-7-methanesulfonyl-5H-pyrido[3,2-b]indol-3-yl}-4-(^2H3)methyl-1-methyl-1H-1,2,3-triazole], < 5 nM; to `[2H]C([2H])([2H])c1nnn(C)c1-c1cnc2c3c(F)cc(S(C)(=O)=O)cc3n(C(c3ncccc3F)C3CCC(F)(F)CC3)c2c1` (stereo not shown) [Example 211, 2-[(4,4-Difluorocyclohexyl)({9-fluoro-7-methanesulfonyl-3-[4-(^2H3)methyl-1-methyl-1H-1,2,3-triazol-5-yl]-5H-pyrido[3,2-b]indol-5-yl})methyl]-3-fluoropyridine], < 5 nM.
Next, `[2H]C([2H])([2H])c1nnn(C)c1-c1cnc2c3c(F)cc(S(C)(=O)=O)cc3n(C(c3ncccc3F)C3CCC(F)(F)CC3)c2c1` (stereo not shown) [Example 212, 2-[(4,4-Difluorocyclohexyl)({9-fluoro-7-methanesulfonyl-3-[4-(^2H3)methyl-1-methyl-1H-1,2,3-triazol-5-yl]-5H-pyrido[3,2-b]indol-5-yl})methyl]-3-fluoropyridine]: < 5 nM; `Cc1nnn(C)c1-c1cnc2c3c(NS(C)(=O)=O)ccc(S(C)(=O)=O)c3n([C@H](c3ccccc3)C3CCOCC3)c2c1` [Example 216, N-[3-(dimethyl-1H-1,2,3-triazol-5-yl)-6-methanesulfonyl-5-[(S)-oxan-4-yl(phenyl)methyl]-5H-pyrido[3,2-b]indol-9-yl]methanesulfonamide]: < 5 nM; `Cc1nnn(C)c1-c1cnc2c3c(NS(=O)(=O)C4CC4)ccc(S(C)(=O)=O)c3n([C@H](c3ccccc3)C3CCOCC3)c2c1` [Example 218]: < 5 nM.
To `[2H]C([2H])([2H])c1nnn(C)c1-c1cnc2c3c(F)ccc(S(C)(=O)=O)c3n([C@H](c3ccccc3)C3CCOCC3)c2c1` [Example 221, 5-{9-Fluoro-6-methanesulfonyl-5-[(S)-oxan-4-yl(phenyl)methyl]-5H-pyrido[3,2-b]indol-3-yl}-4-(^2H3)methyl-1-methyl-1H-1,2,3-triazole] belongs < 5 nM; to `[2H]C([2H])([2H])c1nnn(C)c1-c1cnc2c3c(NS(=O)(=O)C4CC4)ccc(S(C)(=O)=O)c3n([C@H](c3ccccc3)C3CCOCC3)c2c1` [Example 222, N-{6-Methanesulfonyl-3-[4-(^2H3)methyl-1-methyl-1H-1,2,3-triazol-5-yl]-5-[(S)-oxan-4-yl(phenyl)methyl]-5H-pyrido[3,2-b]indol-9-yl}cyclopropanesulfonamide], < 5 nM; to `[2H]C([2H])([2H])c1nnn(C)c1-c1cnc2c3c(NCCCC(=O)O)ccc(S(C)(=O)=O)c3n([C@H](c3ccccc3)C3CCOCC3)c2c1` [Example 225, 4-({6-Methanesulfonyl-3-[4-(^2H3)methyl-1-methyl-1H-1,2,3-triazol-5-yl]-5-[(S)-oxan-4-yl(phenyl)methyl]-5H-pyrido[3,2-b]indol-9-yl}amino)butanoic acid], < 25 nM.
`[2H]C([2H])([2H])c1nnn(C)c1-c1cnc2c3c(NCC(C)(C)N)ccc(S(C)(=O)=O)c3n([C@H](c3ccccc3)C3CCOCC3)c2c1` [Example 226, N-(2-Amino-2-methylpropyl)-6-methanesulfonyl-3-[4-(^2H3)methyl-1-methyl-1H-1,2,3-triazol-5-yl]-5-[(S)-oxan-4-yl(phenyl)methyl]-5H-pyrido[3,2-b]indol-9-amine]: the IC50 is < 5 nM.
With `[2H]C([2H])([2H])c1nnn(C)c1-c1cnc2c3c(N)ccc(S(C)(=O)=O)c3n([C@H](c3ccccc3)C3CCOCC3)c2c1` [Example 227, 6-Methanesulfonyl-3-[4-(^2H3)methyl-1-methyl-1H-1,2,3-triazol-5-yl]-5-[(S)-oxan-4-yl(phenyl)methyl]-5H-pyrido[3,2-b]indol-9-amine], the IC50 was < 5 nM.
Next, `[2H]C([2H])([2H])c1nnn(C)c1-c1cnc2c3c(NS(=O)(=O)CC(F)(F)F)ccc(S(C)(=O)=O)c3n([C@H](c3ccccc3)C3CCOCC3)c2c1` [Example 228, 2,2,2-Trifluoro-N-{6-methanesulfonyl-3-[4-(^2H3)methyl-1-methyl-1H-1,2,3-triazol-5-yl]-5-[(S)-oxan-4-yl(phenyl)methyl]-5H-pyrido[3,2-b]indol-9-yl}ethane-1-sulfonamide]: < 5 nM; `[2H]C([2H])([2H])c1nnn(C)c1-c1cnc2c3c(OCC(F)F)ccc(S(C)(=O)=O)c3n([C@H](c3ccccc3)C3CCOCC3)c2c1` [Example 229, 5-[9-(2,2-Difluoroethoxy)-6-methanesulfonyl-5-[(S)-oxan-4-yl(phenyl)methyl]-5H-pyrido[3,2-b]indol-3-yl]-4-(^2H3)methyl-1-methyl-1H-1,2,3-triazole]: < 5 nM.
As for `[2H]C([2H])([2H])c1nnn(C)c1-c1cnc2c3c(OCC(C)(F)F)ccc(S(C)(=O)=O)c3n([C@H](c3ccccc3)C3CCOCC3)c2c1` [Example 230, 5-[9-(2,2-Difluoropropoxy)-6-methanesulfonyl-5-[(S)-oxan-4-yl(phenyl)methyl]-5H-pyrido[3,2-b]indol-3-yl]-4-(^2H3)methyl-1-methyl-1H-1,2,3-triazole], the IC50 is < 5 nM.
